Structures can show the parent of a compound that is named as a salt. Where two headings read alike, the source gives them in different places.
How the values were obtained:
rNHE3 = rNHE3 (Rattus norvegicus, UniProt P26433); test: recovery of intracellular pH (pHi) after acidification, BCECF fluorescence; type: cell-based
Method: In this test, the recovery of the intracellular pH (pHi) after an acidification, which starts when the NHE is capable of functioning, even under bicarbonate-free conditions, was determined. For this purpose, the pHi was determined using the pH-sensitive fluorescent dye BCECF (calbiochem, the precursor BCECF-AM is employed). The cells were initially loaded with BCECF. The BCECF fluorescence was determined in a “ratio fluorescence spectrometer” (Photon Technology International, South Brunswick, N.J., USA) with excitation wavelengths of 505 and 440 nm and an emission wavelength of 535 nm, and was converted into the pHi using calibration plots. The cells were incubated in NH4Cl buffer (pH 7.4) (NH4Cl buffer: 115 mM NaCl, 20 mM NH4Cl, 5 mM KCl, 1 mM CaCl2, 1 mM MgSO4, 20 mM Hepes, 5 mM glucose, 1 mg/ml BSA; a pH of 7.4 is established with 1 M NaOH) even during the BCECF loading. The intracellular acidification was induced by addition of 975 μl of an NH4Cl-free buffer (see below) to 25 μl aliquots of the cells incubated in NH4Cl buffer. The subsequent rate of pH recovery was recorded in the case of NHE1 for two minutes, in the case of NHE2 for five minutes and in the case of NHE3 for three minutes. To calculate the inhibitory power of the tested substances, the cells were initially investigated in buffers in which complete or absolutely no pH recovery took place. For complete pH recovery (100%), the cells were incubated in Na^+-containing buffer (133.8 mM NaCl, 4.7 mM KCl, 1.25 mM CaCl2, 1.25 mM MgCl2, 0.97 mM Na2HPO4, 0.23 mM NaH2PO4, 5 mM Hepes, 5 mM glucose, a pH of 7.0 is established with 1 M NaOH). […] Recovery of the intracellular pH at the tested concentration of a substance was expressed as a percentage of the maximum recovery. Using the Sigma-Plot program, the IC50 value of the substance in question was calculated for the individual NHE subtypes using the percentages for pH recovery.

imidazoline I1 receptor = settings: cited from earlier work
[1] = test system: adrenergic alpha2 receptor; settings: cited from earlier work
NHE3 = NHE3 (Oryctolagus cuniculus, UniProt P26432); settings: cited from earlier work
NHE3, sequence (P26432 30-832): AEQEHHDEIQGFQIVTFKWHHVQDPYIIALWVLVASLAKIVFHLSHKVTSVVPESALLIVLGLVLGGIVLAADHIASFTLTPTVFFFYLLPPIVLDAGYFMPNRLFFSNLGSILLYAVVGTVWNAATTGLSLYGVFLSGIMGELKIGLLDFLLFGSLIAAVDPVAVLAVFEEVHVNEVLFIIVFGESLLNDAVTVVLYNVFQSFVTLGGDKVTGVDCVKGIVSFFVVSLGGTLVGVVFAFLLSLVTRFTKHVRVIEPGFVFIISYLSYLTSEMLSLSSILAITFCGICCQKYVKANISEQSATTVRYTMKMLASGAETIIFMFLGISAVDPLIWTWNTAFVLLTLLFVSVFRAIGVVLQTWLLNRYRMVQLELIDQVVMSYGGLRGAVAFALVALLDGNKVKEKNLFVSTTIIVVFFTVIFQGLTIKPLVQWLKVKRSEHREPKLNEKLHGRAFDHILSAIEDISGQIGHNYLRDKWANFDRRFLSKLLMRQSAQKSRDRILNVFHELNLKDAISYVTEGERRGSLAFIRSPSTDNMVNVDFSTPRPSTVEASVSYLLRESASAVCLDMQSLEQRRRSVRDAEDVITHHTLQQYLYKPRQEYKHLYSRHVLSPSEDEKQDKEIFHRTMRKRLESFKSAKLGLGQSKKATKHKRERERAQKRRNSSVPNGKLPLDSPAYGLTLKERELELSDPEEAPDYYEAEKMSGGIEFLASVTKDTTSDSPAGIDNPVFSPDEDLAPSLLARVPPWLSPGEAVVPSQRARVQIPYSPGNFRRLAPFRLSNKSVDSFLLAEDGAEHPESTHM

[2] = pH recovery recorded for three minutes, read-out: IC50 [μM], (rNHE3)

rNHE3, sequence (P26433 29-831): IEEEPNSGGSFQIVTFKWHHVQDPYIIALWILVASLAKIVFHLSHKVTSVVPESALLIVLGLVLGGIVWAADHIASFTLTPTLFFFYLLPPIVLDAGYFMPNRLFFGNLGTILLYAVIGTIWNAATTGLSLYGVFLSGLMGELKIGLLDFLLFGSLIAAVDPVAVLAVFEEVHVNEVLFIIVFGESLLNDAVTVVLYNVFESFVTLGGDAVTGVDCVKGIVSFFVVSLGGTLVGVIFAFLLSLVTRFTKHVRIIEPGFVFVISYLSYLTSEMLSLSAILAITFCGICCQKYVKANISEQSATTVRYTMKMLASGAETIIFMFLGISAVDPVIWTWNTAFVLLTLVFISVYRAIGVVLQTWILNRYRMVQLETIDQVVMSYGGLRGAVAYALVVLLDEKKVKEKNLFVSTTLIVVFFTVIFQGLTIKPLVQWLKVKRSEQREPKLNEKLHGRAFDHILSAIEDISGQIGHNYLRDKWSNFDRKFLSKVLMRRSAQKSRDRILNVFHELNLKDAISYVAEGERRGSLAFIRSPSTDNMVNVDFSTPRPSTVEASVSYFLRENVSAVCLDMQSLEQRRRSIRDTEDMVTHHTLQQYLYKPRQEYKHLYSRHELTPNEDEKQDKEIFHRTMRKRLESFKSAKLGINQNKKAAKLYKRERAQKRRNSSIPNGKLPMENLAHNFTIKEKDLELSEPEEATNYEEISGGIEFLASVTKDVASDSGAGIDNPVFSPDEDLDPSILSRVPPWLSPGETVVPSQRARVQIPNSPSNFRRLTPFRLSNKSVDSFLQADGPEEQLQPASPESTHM

melting point [°C]	IC50 (rNHE3; [2]) [µM]	Structure (SMILES)	also measured
110		Cl.c1ccc(Oc2ccccc2N=C2N[C@@H]3CCCC[C@H]3N2)cc1	
	1.1	CC(C)[C@@H]1NC(=Nc2c(Cl)cccc2Cl)N[C@H]1C(C)C (racemic) [Example 7, trans-(2,6-Dichlorophenyl)-(4,5-diisopropylimidazolidin-2-ylidene)amine hydrochloride]	
160 to 165	19	Cl.FC(F)(F)c1cccc(Cl)c1N=C1N[C@H]2CCCC[C@@H]2N1 (relative stereo) [Example 5, trans-(2-Chloro-6-trifluoromethylphenyl)-(octahydrobenzimidazol-2-ylidene)amine hydrochloride]	
		Clc1cccc(Cl)c1N=C1NCCN1 [Clonidine]	affinity for the imidazoline I1 receptor (imidazoline I1 receptor): high affinity; affinity for the adrenergic alpha2 receptor [1]: high affinity
		CC1NC(=Nc2c(Cl)cccc2Cl)NC1C (centres unmarked) [Example 12, (2,6-dichlorophenyl)-(4,5-dimethylimidazolidin-2-ylidene)amine nitric acid salt]	IC50 (rNHE3): ~3 µM
		CC(C)[C@@H](CC[C@@H](C)[C@H]1CC[C@H]2[C@@H]3[C@H](O)C[C@H]4C[C@@H](NCCCNCCCCN)CC[C@]4(C)[C@H]3CC[C@]12C)OS(=O)(=O)O [Squalamine]	time to maximum potency as NHE3 inhibitor (NHE3): reaches its maximum potency only after one hour
